Holding throughout (test): relative viability (nuclei count vs DMSO), 5 days (fraction); higher = more cells survive
Compound in one test: CC(C)C[C@@H](C(=O)N[C@H](C(=O)OC1CCCC1)c1ccccc1)[C@H](O)C(=O)NO [Tosedostat]
In a few lines: (§1)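 For viability, nuclei in each treated well were divided by nuclei in vehicle wells and the median across plates was taken. Lung cancer cell lines in 1536-well plates were pinned with five library-drug doses (not always all listed) spaced by √10, cultured 5 days without medium change, and imaged at 4× after Hoechst staining, with plates passing only at control CV below 25% and at least one doubling.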

Compound in test [1]: CC1=NN=C(O1)C2=NN=C(C=C2)N3CCC(CC3)OC4=C(C=CC(=C4)F)Cl
A digest of the protocol: as §1

Compound in the test “Tosedostat + Alpelisib”: CC(C)C[C@@H](C(=O)N[C@H](C(=O)OC1CCCC1)c1ccccc1)[C@H](O)C(=O)NO [Tosedostat] + Cc1nc(NC(=O)N2CCC[C@H]2C(N)=O)sc1-c1ccnc(C(C)(C)C(F)(F)F)c1 [Alpelisib] (partner 2 µM)
In a few lines: (§2)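 Relative viability equals treated-well nuclei counts divided by vehicle-well nuclei counts. Counts came from 4× images of lung cancer cell lines grown in 1536-well plates for 5 days after pin-tool dosing on the day after seeding. Dosing used one drug alone or a fixed anchor-drug dose plus five library-drug doses (not always all listed) in √10 steps, and values are medians of duplicate plates.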

Compound in test [2]: CC1=NN=C(O1)C2=NN=C(C=C2)N3CCC(CC3)OC4=C(C=CC(=C4)F)Cl + Nc1nc2[nH]cc(CCc3ccc(C(=O)N[C@@H](CCC(=O)O)C(=O)O)cc3)c2c(=O)[nH]1 [Pemetrexed] (partner 0.2 µM)
A digest of the protocol:
as §2

As to EKVX, the relative viability with Tosedostat (0.02 µM) is 0.973; with Tosedostat (0.06325 µM) it was 0.972; with Tosedostat (0.2 µM), 0.944; with Tosedostat (0.6325 µM) it was 0.859; in the test with Tosedostat (2 µM), 0.911; in test [1] (0.253 µM), 0.475. In addition, the relative viability worked out at 0.405 in test [1] (0.8 µM); 0.432 in test [1] (2.53 µM); 0.479 in test [1] (8 µM); 0.868 with Tosedostat + Alpelisib (first compound 0.02 µM); 0.86 with Tosedostat + Alpelisib (first compound 0.06325 µM); 0.835 in the test with Tosedostat + Alpelisib (first compound 0.2 µM). In addition, the relative viability came out at 0.838 with Tosedostat + Alpelisib (first compound 0.6325 µM); 0.87 with Tosedostat + Alpelisib (first compound 2 µM); 0.269 in test [2] (first compound 0.253 µM); 0.263 in test [2] (first compound 0.8 µM); 0.343 in test [2] (first compound 2.53 µM); 0.348 in test [2] (first compound 8 µM).

Regarding EMC-BAC-2, the relative viability in the test with Tosedostat (0.02 µM) came to 1.09; in the test with Tosedostat (0.06325 µM), 1.16; with Tosedostat (0.2 µM) it was 0.952; with Tosedostat (0.6325 µM) it was 0.919; in the test with Tosedostat (2 µM), 0.811; in test [1] (0.253 µM) it was 0.98. In addition, the relative viability in test [1] (0.8 µM) was determined as 0.872; in test [1] (2.53 µM), 0.891; in test [1] (8 µM) it was 0.615; with Tosedostat + Alpelisib (first compound 0.02 µM), 0.722; with Tosedostat + Alpelisib (first compound 0.06325 µM) it was 0.725; with Tosedostat + Alpelisib (first compound 0.2 µM), 0.73. Moreover, the relative viability with Tosedostat + Alpelisib (first compound 0.6325 µM) came to 0.737; in the test with Tosedostat + Alpelisib (first compound 2 µM), 0.682; in test [2] (first compound 0.253 µM), 0.452; in test [2] (first compound 0.8 µM), 0.419; in test [2] (first compound 2.53 µM) it was 0.485; in test [2] (first compound 8 µM), 0.527.

As for EPLC-272H, the relative viability with Tosedostat (0.02 µM) turned out to be 1.06; with Tosedostat (0.06325 µM) it was 0.984; with Tosedostat (0.2 µM), 0.763; with Tosedostat (0.6325 µM) it was 0.593; in the test with Tosedostat (2 µM) it was 0.428; in test [1] (0.253 µM), 0.987. In addition, the relative viability in test [1] (0.8 µM) turned out to be 0.716; in test [1] (2.53 µM) it was 0.887; in test [1] (8 µM), 0.828; with Tosedostat + Alpelisib (first compound 0.02 µM), 0.777; with Tosedostat + Alpelisib (first compound 0.06325 µM), 0.999; with Tosedostat + Alpelisib (first compound 0.2 µM), 0.719. The relative viability worked out at 0.747 with Tosedostat + Alpelisib (first compound 0.6325 µM); 0.505 in the test with Tosedostat + Alpelisib (first compound 2 µM); 0.313 in test [2] (first compound 0.253 µM); 0.339 in test [2] (first compound 0.8 µM); 0.285 in test [2] (first compound 2.53 µM); 0.371 in test [2] (first compound 8 µM).

In the case of H3255, the relative viability came out at 0.994 in the test with Tosedostat (0.02 µM); 0.869 with Tosedostat (0.06325 µM); 0.94 in the test with Tosedostat (0.2 µM); 0.852 with Tosedostat (0.6325 µM); 0.886 with Tosedostat (2 µM); 0.662 in test [1] (0.253 µM). Besides, the relative viability was found to be 0.688 in test [1] (0.8 µM); 0.635 in test [1] (2.53 µM); 0.727 in test [1] (8 µM); 0.666 with Tosedostat + Alpelisib (first compound 0.02 µM); 0.642 with Tosedostat + Alpelisib (first compound 0.06325 µM); 0.589 with Tosedostat + Alpelisib (first compound 0.2 µM). The relative viability in the test with Tosedostat + Alpelisib (first compound 0.6325 µM) stood at 0.568; with Tosedostat + Alpelisib (first compound 2 µM), 0.663; in test [2] (first compound 0.253 µM), 0.506; in test [2] (first compound 0.8 µM), 0.533; in test [2] (first compound 2.53 µM), 0.518; in test [2] (first compound 8 µM), 0.577.

As to HARA, the relative viability turned out to be 1.15 with Tosedostat (0.02 µM); 0.977 with Tosedostat (0.06325 µM); 0.922 in the test with Tosedostat (0.2 µM); 0.887 with Tosedostat (0.6325 µM); 0.774 with Tosedostat (2 µM); 0.484 in test [1] (0.253 µM). The relative viability in test [1] (0.8 µM) worked out at 0.387; in test [1] (2.53 µM), 0.538; in test [1] (8 µM) it was 0.355; with Tosedostat + Alpelisib (first compound 0.02 µM), 0.887; with Tosedostat + Alpelisib (first compound 0.06325 µM), 0.839; in the test with Tosedostat + Alpelisib (first compound 0.2 µM), 0.875. In addition, the relative viability in the test with Tosedostat + Alpelisib (first compound 0.6325 µM) was determined as 0.716; with Tosedostat + Alpelisib (first compound 2 µM) it was 0.74; in test [2] (first compound 0.253 µM), 0.245; in test [2] (first compound 0.8 µM), 0.26; in test [2] (first compound 2.53 µM), 0.239; in test [2] (first compound 8 µM), 0.231.

HCC-15: the relative viability worked out at 1.05 with Tosedostat (0.02 µM); 0.89 with Tosedostat (0.06325 µM); 0.996 in the test with Tosedostat (0.2 µM); 0.901 in the test with Tosedostat (0.6325 µM); 0.848 with Tosedostat (2 µM); 0.463 in test [1] (0.253 µM). Also, the relative viability was found to be 0.449 in test [1] (0.8 µM); 0.456 in test [1] (2.53 µM); 0.464 in test [1] (8 µM); 0.848 with Tosedostat + Alpelisib (first compound 0.02 µM); 0.934 in the test with Tosedostat + Alpelisib (first compound 0.06325 µM); 0.863 with Tosedostat + Alpelisib (first compound 0.2 µM). Also, the relative viability is 0.808 in the test with Tosedostat + Alpelisib (first compound 0.6325 µM); 0.651 with Tosedostat + Alpelisib (first compound 2 µM); 0.215 in test [2] (first compound 0.253 µM); 0.239 in test [2] (first compound 0.8 µM); 0.226 in test [2] (first compound 2.53 µM); 0.214 in test [2] (first compound 8 µM).

Consider HCC-44, for which the relative viability with Tosedostat (0.02 µM) came out at 1.09; in the test with Tosedostat (0.06325 µM) it was 1.01; with Tosedostat (0.2 µM), 0.982; with Tosedostat (0.6325 µM), 0.905; with Tosedostat (2 µM), 0.628; in test [1] (0.253 µM), 0.492. Moreover, the relative viability in test [1] (0.8 µM) worked out at 0.542; in test [1] (2.53 µM), 0.509; in test [1] (8 µM), 0.517; in the test with Tosedostat + Alpelisib (first compound 0.02 µM), 0.684; in the test with Tosedostat + Alpelisib (first compound 0.06325 µM) it was 0.874; in the test with Tosedostat + Alpelisib (first compound 0.2 µM), 0.767. Further, the relative viability with Tosedostat + Alpelisib (first compound 0.6325 µM) came to 0.886; in the test with Tosedostat + Alpelisib (first compound 2 µM) it was 0.544; in test [2] (first compound 0.253 µM), 0.264; in test [2] (first compound 0.8 µM), 0.378; in test [2] (first compound 2.53 µM) it was 0.282; in test [2] (first compound 8 µM), 0.31.

With HCC-78, the relative viability in the test with Tosedostat (0.02 µM) was found to be 0.938; in the test with Tosedostat (0.06325 µM), 1.04; in the test with Tosedostat (0.2 µM) it was 1; with Tosedostat (0.6325 µM), 1.04; with Tosedostat (2 µM), 0.958; in test [1] (0.253 µM), 0.659. The relative viability in test [1] (0.8 µM) was 0.615; in test [1] (2.53 µM) it was 0.578; in test [1] (8 µM) it was 0.551; with Tosedostat + Alpelisib (first compound 0.02 µM), 0.294; with Tosedostat + Alpelisib (first compound 0.06325 µM), 0.338; in the test with Tosedostat + Alpelisib (first compound 0.2 µM), 0.257. Besides, the relative viability in the test with Tosedostat + Alpelisib (first compound 0.6325 µM) was found to be 0.336; with Tosedostat + Alpelisib (first compound 2 µM), 0.454; in test [2] (first compound 0.253 µM) it was 0.888; in test [2] (first compound 0.8 µM) it was 0.879; in test [2] (first compound 2.53 µM), 0.872; in test [2] (first compound 8 µM) it was 0.853.

These data come from the supplement of paper PMC10307832.
